Measurements published in US12622878B2, “Cationic lipid having cystine skeleton” (NOF CORPORATION, priority 2020, dated 2026).

Legend:
[1] = Particle size, PdI and zeta potential of mRNA-encapsulating LNPs by dynamic light scattering; format: physicochemical; details: FLuc mRNA-encapsulating LNP, cationic lipid:DOPC:Chol=55:5:40 + about 1 mol DMG-PEG2k; for PdI / particle size: dynamic light scattering; for zeta potential: physiological pH
Protocol: (§1) A 10 mM ethanol solution of cationic lipid, a 5 mM ethanol solution of DOPC, and a 10 mM ethanol solution of Chol were mixed at desired ratio (cationic lipid:DOPC:Chol=55:5:40 (molar ratio)) in an Eppendorf tube to achieve the total lipid amount of 720 nmol. To the obtained mixture was further added DMG-PEG2k (2 mM ethanol solution) in an amount of about 1 mol with respect to the total amount 100 mol of cationic lipid, DOPC, and Chol, and then ethanol was added to prepare an ethanol solution of the lipid (total amount: 360 μL).
An acidic buffer solution (total amount: 1080 μL) of nucleic acid was prepared by weighing 7.2 μg of mRNA solution (0.6 mg/mL) (CleanCap (registered trade mark) FLuc mRNA (TriLink)) in a 5 mL tube and adding acidic malate buffer (20 mM, pH 3.0) containing NaCl at a final concentration of 30 mM.
An acidic buffer solution of nucleic acid and an ethanol solution of lipid were each weighed in a syringe. Using an ultra high-speed nanomedicament producing apparatus NanoAssmblr (manufactured by Precision NanoSystems), LNP was prepared under the conditions of addition rate of acidic buffer solution of nucleic acid: 3 mL/min, addition rate of ethanol solution of lipid: 1 mL/min, and syringe holder temperature: 25° C., and collected in a 15 mL tube. MES buffer (pH 6.5) (3000 μL) was added to the 15 mL tube, the obtained mixture was transferred to Amicon Ultra 4, and ultrafiltration was performed under centrifugation conditions (25° C., 1000 g, 6 min) to concentrate the mixture to about 100 μL. The obtained concentrate was diluted with PBS to 4 mL, and the mixture was concentrated again under centrifugation conditions (25° C., 1000 g, 6 min), and this operation was performed twice. The obtained concentrate was diluted with PBS to a lipid concentration of 2 mM to give a dispersion containing LNP.
The particle size, PdI (Polydispersity Index, Polydispersity), and zeta potential of the mRNA-encapsulating LNP prepared by the method of the above-mentioned 1 were measured by a dynamic light scattering method.

[2] = Measurement of Liposomal pKa (TNS fluorescence) of LNP without nucleic acid; format: physicochemical; details: cationic lipid:DOPC:Chol=52.5:7.5:40 + about 1.5 mol DMG-PEG2k, pH at which relative TNS fluorescence intensity was 50%
Protocol: Lipid nano particles (LNP) without containing nucleic acid were used for the evaluation of Liposomal pKa.
as §1, with “(cationic lipid:DOPC:Chol=52.5:7.5:40” for “(cationic lipid:DOPC:Chol=55:5:40”, “about 1.5” for “about 1”
An acidic malic acid buffer (20 mM, pH 3.0) (1080 μL) containing NaCl at a final concentration of 30 mM and an ethanol solution (360 μL) of lipid were each weighed in a syringe. Using an ultra high-speed nanomedicament producing apparatus NanoAssmblr (manufactured by Precision NanoSystems), LNP was prepared under the conditions of addition rate of acidic buffer solution: 3 mL/min, addition rate of ethanol solution of lipid: 1 mL/min, and syringe holder temperature: 25° C., and collected in a 15 mL tube. MES buffer (pH 6.5) (3000 μL) was added to the 15 mL tube, the obtained mixture was transferred to Amicon Ultra 4, and ultrafiltration was performed under centrifugation conditions (25° C., 1000 g, 6 min) to concentrate the mixture to about 100 μL. The obtained concentrate was diluted with PBS to 4 mL, and the mixture was concentrated again under centrifugation conditions (25° C., 1000 g, 6 min), and this operation was performed twice. The obtained concentrate was diluted with PBS to a lipid concentration of 0.5 mM to give a dispersion containing LNP.
20 mM Citrate buffer, sodium phosphate buffer, and tris HCl buffer, each containing NaCl at a final concentration of 150 mM and adjusted to various pHs within the range of pH 3.0 to 10.0, were prepared. TNS (manufactured by Sigma) was diluted with ultrapure water to 0.6 mM. TNS solution (2 μL), dispersions (12 μL) containing LNP prepared in [Experimental Example 1], 1, and buffers adjusted to various pHs (186 μL) were added to a black 96 well plate. The plate was protected from light and shaken at 400 rpm for 10 min. The fluorescence intensity (excitation: 321 nm/emission: 447 nm) was measured using a plate reader (manufactured by TECAN). The relative fluorescence intensity was calculated as a percentage, with the maximum value of the fluorescence intensity in each LNP being 100% and the minimum value being 0%. Furthermore, the pH at which the relative fluorescence intensity was 50% was taken as Liposomal pKa.

[3] = tested on: HeLa cells; assay: In vitro gene expression (luciferase mRNA) in HeLa cells; format: cell-based, human; details: FLuc mRNA-encapsulating LNP, 0.4 μg mRNA, FIG. 3
Protocol: (§2) LNP encapsulating mRNA (CleanCap (registered trade mark) FLuc mRNA (TriLink)) that expresses luciferase (cationic lipid:DOPC:Chol:DMG-PEG2k=55:5:40:1 (molar ratio)) was prepared by the method described in [Experimental Example 2], 1.
HeLa cells, which are human cervical cancer cells, were seeded in a 3.5 cm dish at 5.0×10^4 cells/2 mL/Dish 24 hours before transfection. After 24 hours, the medium was exchanged with a culture medium (D-MEM) containing 0.1 mM D-luciferin. Prepared mRNA-encapsulating LNP was diluted with PBS such that the concentration of mRNA was 8 μg/mL. The diluted mRNA-encapsulating LNP solution (50 μL, mRNA: 0.4 μg) was added to the 3.5 cm dish and set in an incubator luminometer KronosDio. The luminescence intensity of luciferase was measured for 2 min every one hour. The cumulative luciferase luminescence intensity for 24 hr was calculated from the obtained time change of expression. For example, “1.0E+06” means “1.0×10^6”.

[4] = tested on: Jurkat cells; assay: In vitro gene expression (luciferase mRNA) in Jurkat cells; format: cell-based, human; details: FLuc mRNA-encapsulating LNP, 0.4 μg mRNA, FIG. 1
Protocol: as §2
Jurkat cells, which are human leukemia T cells, were seeded in a 3.5 cm dish at 2.0×10^5 cells/1.8 mL/Dish 24 hours before transfection. After 24 hr, a medium (RPMI1640) (200 μL) supplemented with D-luciferin was added to the dish at final concentration of 0.1 mM. Each mRNA-encapsulating LNP dispersion (40 to 120 μL) (0.4 μg as mRNA) was added to the aforementioned dish, and the aforementioned dish was set in an incubator luminometer KronosDio. The luminescence intensity of luciferase was measured for 2 min every three hours. The cumulative luciferase luminescence intensity for 24 hr was calculated from the obtained time change of expression. For example, “5.0E+05” means “5.0×10^5”.

[5] = tested on: BALB/c mouse; assay: In vivo gene expression (luciferase mRNA), organ luminescence by IVIS; details: tail vein, 0.05 mg mRNA per kg, 4.5 hr after administration, liver and spleen, FIG. 2
Protocol: as §2
The prepared each mRNA-encapsulating LNP dispersion was administered from the tail vein of BALB/c mouse (male, 5-week-old). The dose of mRNA was set to 0.05 mg per 1 kg body weight of the mouse, and the dose of the mRNA-encapsulating LNP dispersion was set to 10 μL per 1 g body weight of the mouse. After 4.5 hr from the administration of the mRNA-encapsulating LNP dispersion, a PBS solution of D-luciferin potassium was administered into the abdominal cavity of the mouse. The dose of D-luciferin potassium was set to 3 mg per mouse, and the dose of the PBS solution of D-luciferin potassium was set to 200 μL per mouse. After 15 min from the administration of the PBS solution of D-luciferin potassium, the mouse was euthanized, and the liver, spleen, kidney, heart, and lung were isolated. The luminescence in each organ was quantified using an in vivo imaging system (IVIS) with an exposure of 10 sec. The amount of luminescence in each organ was quantified by image analysis using Live Imaging software attached to IVIS. The amount of luminescence (photons/sec) was calculated from the acquired image and used as an index of gene expression activity. […]

| SMILES | PdI [1] | particle size [1] [nm] | zeta potential [1] [mV] | pKa [2] | gene expression activity (cumulative luciferase luminescence intensity for 24 hr) [3] | gene expression activity (cumulative luciferase luminescence intensity for 24 hr) [4] | gene expression activity (amount of luminescence in organ) [5] |
| --- | --- | --- | --- | --- | --- | --- | --- |
| CCCCCCCC/C=C\CCCCCCCC(=O)Oc1ccc(CC(=O)OCCOC(=O)C(CSSCC(NC(=O)CN(CC)CC)C(=O)OCCOC(=O)Cc2ccc(OC(=O)CCCCCCC/C=C\CCCCCCCC)cc2)NC(=O)CN(CC)CC)cc1 (stereo not drawn) [Example 4] | 0.091 | 81 | −7.78 | 6.3 | – | – | – |
| CCCCCCCC/C=C\CCCCCCCC(=O)Oc1ccc(CC(=O)OCCOC(=O)C(CSSCC(NC(=O)CN(CCC)CCC)C(=O)OCCOC(=O)Cc2ccc(OC(=O)CCCCCCC/C=C\CCCCCCCC)cc2)NC(=O)CN(CCC)CCC)cc1 (stereo not drawn) [Example 5] | 0.162 | 112 | −12.4 | 5.3 | – | – | – |
| CCCCCCCC/C=C\CCCCCCCC(=O)Oc1ccc(CC(=O)OCCOC(=O)C(CSSCC(NC(=O)CN2CCCCC2)C(=O)OCCOC(=O)Cc2ccc(OC(=O)CCCCCCC/C=C\CCCCCCCC)cc2)NC(=O)CN2CCCCC2)cc1 (stereo not drawn) [Example 7] | 0.080 | 126 | −10.3 | 6 | – | – | – |

The next lines start with results.

| PdI [1] | particle size [1] [nm] | zeta potential [1] [mV] | pKa [2] | SMILES | gene expression activity (cumulative luciferase luminescence intensity for 24 hr) [3] | gene expression activity (cumulative luciferase luminescence intensity for 24 hr) [4] | gene expression activity (amount of luminescence in organ) [5] |
| --- | --- | --- | --- | --- | --- | --- | --- |
| 0.105 | 78 | 0.01 | 6.6 | CCCCCCCC/C=C\CCCCCCCC(=O)Oc1ccc(CC(=O)OCCOC(=O)C(CSSCC(NC(=O)CN(C)C)C(=O)OCCOC(=O)Cc2ccc(OC(=O)CCCCCCC/C=C\CCCCCCCC)cc2)NC(=O)CN(C)C)cc1 (stereo not drawn) [Example 1] | superior gene expression activity | superior gene expression activity | superior gene expression activity in the liver and the spleen |
| 0.073 | 82 | −5.02 | 6.4 | CCCCCCCC/C=C\CCCCCCCC(=O)Oc1ccc(CC(=O)OCCOC(=O)C(CSSCC(NC(=O)CN(C)CC)C(=O)OCCOC(=O)Cc2ccc(OC(=O)CCCCCCC/C=C\CCCCCCCC)cc2)NC(=O)CN(C)CC)cc1 (stereo not drawn) [Example 2] | – | – | – |
| 0.100 | 111 | −11.2 | 5.9 | CCCCCCCC/C=C\CCCCCCCC(=O)Oc1ccc(CC(=O)OCCOC(=O)C(CSSCC(NC(=O)CN(C)CCC)C(=O)OCCOC(=O)Cc2ccc(OC(=O)CCCCCCC/C=C\CCCCCCCC)cc2)NC(=O)CN(C)CCC)cc1 (stereo not drawn) [Example 3] | – | – | – |
